The values that follow come from patent publication US9062041B2 (Bayer Intellectual Property GmbH, priority 2011, dated 2015).

Format in all cases: cell-based
Test [1] addresses EP2 subtype of the human PGE2 receptor (Homo sapiens, UniProt P43116). The experiment in a line: cAMP antagonism test on the human EP2 receptor (HTRF cAMP detection). The conditions noted are these: hEP2 receptor, read-out: Antagonism hEP2 IC50. The method in brief:
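Read-out is a competitive HTRF for cAMP: lysate cAMP displaces cAMP-d2 from Eu cryptate-labelled antibody, and antagonism raises the 665/620 nm ratio. Compound (0.8 nM–16.5 μM) added to EP2 cells 20 min at RT before 60 min PGE2 challenge (3× stock 1.5 nM) with IBMX, followed by 20 min lysis.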

The target of test [2] is EP4 subtype of the human PGE2 receptor (Homo sapiens, UniProt P35408). In words: cAMP antagonism test on the human EP4 receptor (HTRF cAMP detection). The conditions noted are these: selectivity towards hEP4, IC50 measured by cAMP antagonism test. The gist of the method:
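Competitive HTRF cAMP read-out (cAMP-d2 vs Eu-cryptate anti-cAMP antibody, 665/620 nm ratio) on lysed human EP4 cells. Compound (0.8 nM–16.5 μM) applied 20 min at RT before 60 min PGE2 challenge (3× solution 0.3 nM, IBMX present); 20 min lysis precedes reading.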

Test [3] deals with T1, human PGD receptor (Homo sapiens, UniProt Q13258).
T1 sequence (Q13258 1-359): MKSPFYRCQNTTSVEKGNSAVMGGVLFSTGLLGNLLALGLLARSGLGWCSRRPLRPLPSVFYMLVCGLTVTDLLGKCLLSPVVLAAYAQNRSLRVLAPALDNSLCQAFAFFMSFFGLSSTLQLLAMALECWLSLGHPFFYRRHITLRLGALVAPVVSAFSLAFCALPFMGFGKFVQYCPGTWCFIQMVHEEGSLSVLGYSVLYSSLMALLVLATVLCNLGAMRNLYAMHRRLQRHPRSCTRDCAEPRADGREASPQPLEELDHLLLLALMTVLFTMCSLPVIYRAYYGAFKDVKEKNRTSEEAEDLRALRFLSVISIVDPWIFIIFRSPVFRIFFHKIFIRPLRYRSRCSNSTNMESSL
The experiment in a line: cAMP antagonism test on the human prostaglandin D receptor (HTRF cAMP detection). The following applies: selectivity towards hDP, IC50 measured by cAMP antagonism test. The method in brief: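 HTRF competition read-out (665/620 nm ratio ×10000), where higher FRET means less cAMP, i.e. antagonism. Compounds (0.8 nM–16.5 μM) were preincubated 20 min at RT with cells and cAMP-d2, PGD2 (3× solution, 6 nM) in IBMX-containing PBS added for 30 min at RT, then cells lysed 20 min.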
Background: TR-FRET usually uses a lanthanide donor and a delayed reading to cut background.

EP4 subtype of the human PGE2 receptor, sequence (P35408 whole entry): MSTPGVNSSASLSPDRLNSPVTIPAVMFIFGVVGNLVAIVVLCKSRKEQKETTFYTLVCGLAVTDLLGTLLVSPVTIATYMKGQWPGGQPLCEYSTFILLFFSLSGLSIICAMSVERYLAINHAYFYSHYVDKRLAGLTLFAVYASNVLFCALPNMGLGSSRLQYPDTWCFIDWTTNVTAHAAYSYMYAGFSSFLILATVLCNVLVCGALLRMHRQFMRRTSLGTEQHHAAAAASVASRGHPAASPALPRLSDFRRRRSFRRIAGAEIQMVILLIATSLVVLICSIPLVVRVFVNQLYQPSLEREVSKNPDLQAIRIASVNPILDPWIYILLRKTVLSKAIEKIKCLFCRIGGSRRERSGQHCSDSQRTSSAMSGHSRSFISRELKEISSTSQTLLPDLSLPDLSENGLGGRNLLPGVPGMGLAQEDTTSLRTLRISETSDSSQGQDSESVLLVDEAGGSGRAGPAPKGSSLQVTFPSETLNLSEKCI
EP2 subtype of the human PGE2 receptor, sequence (P43116 whole entry): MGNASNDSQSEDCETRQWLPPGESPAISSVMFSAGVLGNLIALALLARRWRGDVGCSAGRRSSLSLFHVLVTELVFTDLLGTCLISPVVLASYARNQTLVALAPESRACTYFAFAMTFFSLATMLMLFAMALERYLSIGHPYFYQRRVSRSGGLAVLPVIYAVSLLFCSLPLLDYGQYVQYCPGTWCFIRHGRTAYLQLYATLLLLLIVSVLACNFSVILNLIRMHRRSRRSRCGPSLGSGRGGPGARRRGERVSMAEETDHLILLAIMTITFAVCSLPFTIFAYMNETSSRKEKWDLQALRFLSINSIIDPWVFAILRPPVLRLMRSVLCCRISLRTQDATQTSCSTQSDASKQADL

One may read the IC50 as the concentration that gives 50% inhibition. In the case of `Cc1cc2nn(CC3CCN(C(=O)c4ccc(OC(F)(F)F)cc4)CC3)cc2cc1C(=O)NCCN1CCOCC1` [Example 75, 6-methyl-N-(2-morpholinoethyl)-2-({1-[4-(trifluorometh-oxy)benzoyl]piperidin-4-yl}methyl)-2H-indazol-5-carboxamide], the IC50 in test [1] was determined as 67 nM. Moreover, the “Selectivity hEP2/hEP4” value in test [2] is given as “xxx (xxx > 100)”. In addition, the “Selectivity hEP2/hDP” value in test [3] was “xxx (xxx > 100)”.
Regarding `Cc1c(C(=O)NCC(C)OCC2CC2)ccc2nn(CC3CCN(C(=O)c4ccc(Cl)cc4)CC3)cc12` (racemic) [Example 102, (+/−)-2-{[1-(4-chlorobenzoyl)piperidin-4-yl]methyl}-N-[2-(cyclopropylmethoxy)propyl]-4-methyl-2H-indazol-5-carboxamide], the half-maximal inhibitory concentration (IC50) in test [1] came to 410 nM. Moreover, the “Selectivity hEP2/hEP4” value in test [2] is “xx (xx: 10-100)”. In test [3], the “Selectivity hEP2/hDP” value is on record as “xx (xx: 10-100)”.
As for `COCCNC(=O)c1cc2cn(CC3CCN(C(=O)c4ccc(C(F)(F)F)c(F)c4)CC3)nc2cc1C` [Example 208, 2-({1-[3-fluoro-4-(trifluoromethyl)benzoyl]piperidin-4-yl}methyl)-N-(2-methoxyethyl)-6-methyl-2H-indazol-5-carboxamide], the IC50 in test [1] turned out to be 80.6 nM. Besides, the “Selectivity hEP2/hEP4” value in test [2] was “xxx (xxx > 100)”. Moreover, the “Selectivity hEP2/hDP” value in test [3] was “xxx (xxx > 100)”.
`COc1cc(F)ccc1-c1ccc(C(=O)N2CCC(Cn3cc4c(C)c(C(=O)NCC(F)(F)F)ccc4n3)CC2)cc1` [Example 320, 2-({1-[(4′-fluoro-2′-methoxybiphenyl-4-yl)carbonyl]piperidin-4-yl}methyl)-4-methyl-N-(2,2,2-trifluoroethyl)-2H-indazol-5-carboxamide]: the IC50 in test [1] turned out to be 15.6 nM. Also, the “Selectivity hEP2/hEP4” value in test [2] was “xxx (xxx > 100)”. In addition, the “Selectivity hEP2/hDP” value in test [3] was “xxx (xxx > 100)”.
As for `Cc1c(C(=O)NCCC#N)ccc2nn(CC3CCN(C(=O)c4ccc(Cl)cc4)CC3)cc12` [Example 400, 2-{[1-(4-chlorobenzoyl)piperidin-4-yl]methyl}-N-(2-cyanoethyl)-4-methyl-2H-indazol-5-carboxamide], the IC50 in test [1] was 56.1 nM. In addition, the “Selectivity hEP2/hEP4” value in test [2] is given as “xxx (xxx > 100)”. For the same compound, the “Selectivity hEP2/hDP” value in test [3] is reported as “xxx (xxx > 100)”.
As for `Cc1c(C(=O)NCC(F)(F)F)ccc2nn(CC3CCN(C(=O)c4ccc(Oc5ccc(C#N)cc5)cc4)CC3)cc12` [Example 306, 2-({1-[4-(4-cyanophenoxy)benzoyl]piperidin-4-yl}methyl)-4-methyl-N-(2,2,2-trifluoroethyl)-2H-indazol-5-carboxamide], the IC50 in test [1] is 76.6 nM. Also, the “Selectivity hEP2/hEP4” value in test [2] is given as “xxx (xxx > 100)”. Besides, in test [3], the “Selectivity hEP2/hDP” value is “xxx (xxx > 100)”.
For the compound `Cc1c(C(=O)NCC(F)(F)F)ccc2nn(CC3CCN(C(=O)c4ccc(-c5ccc(F)cc5)cc4)CC3)cc12` [Example 286, 2-({1-[(4′-fluorobiphenyl-4-yl)carbonyl]piperidin-4-yl}methyl)-4-methyl-N-(2,2,2-trifluoroethyl)-2H-indazol-5-carboxamide], in test [1], the IC50 is 100 nM. In addition, the “Selectivity hEP2/hEP4” value in test [2] is given as “xxx (xxx > 100)”. The “Selectivity hEP2/hDP” value in test [3] is reported as “xxx (xxx > 100)”.
Turning to `Cc1cc2nn(CC3CN(C(=O)c4ccc(S(F)(F)(F)(F)F)cc4)C3)cc2cc1C(=O)NCCSC(F)(F)F` [Example 187, 6-methyl-2-({1-[4-(pentafluoro-λ^6-sulphanyl)benzoyl]azetidin-3-yl}methyl)-N-{2-[(trifluoromethyl)sulphanyl]ethyl}-2H-indazol-5-carboxamide], the IC50 in test [1] was determined as 23.5 nM. The “Selectivity hEP2/hEP4” value in test [2] is given as “xxx (xxx > 100)”. In addition, the “Selectivity hEP2/hDP” value in test [3] is “xxx (xxx > 100)”.
Regarding `Cc1c(C(=O)NCCCO)ccc2nn(CC3CCN(C(=O)c4ccc(-c5ccc(F)cc5)cc4)CC3)cc12` [Example 409, 2-({1-[(4′-fluorobiphenyl-4-yl)carbonyl]piperidin-4-yl}methyl)-N-(3-hydroxypropyl)-4-methyl-2H-indazol-5-carboxamide], the IC50 in test [1] turned out to be 31.8 nM. In addition, the “Selectivity hEP2/hEP4” value in test [2] is recorded as “xxx (xxx > 100)”. Besides, in test [3], the “Selectivity hEP2/hDP” value is recorded as “xxx (xxx > 100)”.
`Cc1c(C(=O)NCCOCC(F)(F)F)ccc2nn(CC3CCN(C(=O)c4ccc(C5CC5)cc4)CC3)cc12` [Example 95, 2-{[1-(4-cyclo-propylbenzoyl)-piperidin-4-yl]-methyl}-4-methyl-N-[2-(2,2,2-tri-fluoroethoxy)ethyl]-2H-indazol-5-carboxamide]: the IC50 in test [1] worked out at 6.18 nM. The “Selectivity hEP2/hEP4” value in test [2] is on record as “xxx (xxx > 100)”. The “Selectivity hEP2/hDP” value in test [3] is reported as “xxx (xxx > 100)”.
On to `COC(C)CNC(=O)c1cc2cn(CC3CN(C(=O)c4ccc(Cl)cc4)C3)nc2cc1C` (racemic) [Example 192, (+/−)-2-{[1-(4-chlorobenzoyl)azetidin-3-yl]methyl}-N-(2-methoxypropyl)-6-methyl-2H-indazol-5-carboxamide], for which the IC50 in test [1] turned out to be 206 nM. In addition, the “Selectivity hEP2/hEP4” value in test [2] is given as “xx (xx: 10-100)”. Moreover, the “Selectivity hEP2/hDP” value in test [3] was “xx (xx: 10-100)”.
In the case of `COCCNC(=O)c1ccc2nn(CC3CN(C(=O)c4cc5cc(F)ccc5n4C)C3)cc2c1C` [Example 170, 2-({1-[(5-fluoro-1-methyl-1H-indol-2-yl)carbonyl]azetidin-3-yl}methyl)-N-(2-methoxyethyl)-4-methyl-2H-indazol-5-carboxamide], the IC50 in test [1] came out at 4.25 nM. Besides, in test [2], the “Selectivity hEP2/hEP4” value is given as “xxx (xxx > 100)”. Moreover, the “Selectivity hEP2/hDP” value in test [3] is listed as “xxx (xxx > 100)”.
For `Cc1cc2nn(CC3CN(C(=O)c4ccc(Cl)cc4)C3)cc2cc1C(=O)NCC(F)(F)F` [Example 190, 2-{[1-(4-chlorobenzoyl)azetidin-3-yl]methyl}-6-methyl-N-(2,2,2-trifluoroethyl)-2H-indazol-5-carboxamide], the IC50 in test [1] worked out at 272 nM. Further, in test [2], the “Selectivity hEP2/hEP4” value is “xx (xx: 10-100)”. Also, the “Selectivity hEP2/hDP” value in test [3] is on record as “xx (xx: 10-100)”.
As to `COCCNC(=O)c1ccc2nn(CC3CCN(C(=O)c4ccc(C#N)cc4F)CC3)cc2c1C` [Example 1, 2-{[1-(4-cyano-2-fluorobenzoyl)piperidin-4-yl]methyl}-N-(2-methoxyethyl)-4-methyl-2H-indazol-5-carboxamide], in test [1], the IC50 amounted to 103 nM. Moreover, in test [2], the “Selectivity hEP2/hEP4” value is on record as “xxx (xxx > 100)”. Also, in test [3], the “Selectivity hEP2/hDP” value is listed as “xxx (xxx > 100)”.
On to `COCCNC(=O)c1ccc2nn(CC3CCN(C(=O)c4ccc(-c5cccc(C(F)(F)F)n5)cc4)CC3)cc2c1C` [Example 369, N-(2-methoxyethyl)-4-methyl-2-[(1-{4-[6-(trifluoromethyl)pyridin-2-yl]-benzoyl}piperidin-4-yl)methyl]-2H-indazol-5-carboxamide], for which the IC50 in test [1] worked out at 5.66 nM. Further, the “Selectivity hEP2/hEP4” value in test [2] is listed as “xxx (xxx > 100)”. Moreover, in test [3], the “Selectivity hEP2/hDP” value is on record as “xxx (xxx > 100)”.
As to `COCCNC(=O)c1cc2cn(CC3CN(C(=O)c4ccc(C(F)(F)F)cc4F)C3)nc2cc1C` [Example 182, 2-({1-[2-fluoro-4-(trifluoromethyl)benzoyl]azetidin-3-yl}methyl)-N-(2-methoxy-ethyl)-6-methyl-2H-indazol-5-carboxamide], the IC50 in test [1] came out at 64.2 nM. Besides, the “Selectivity hEP2/hEP4” value in test [2] is listed as “xxx (xxx > 100)”. The “Selectivity hEP2/hDP” value in test [3] is listed as “xxx (xxx > 100)”.
For `COCCNC(=O)c1ccc2nn(CC3CCN(C(=O)c4ccc(Br)cc4F)CC3)cc2c1C` [Example 8, 2-{[1-(4-bromo-2-fluorobenzoyl)piperidin-4-yl]methyl}-N-(2-methoxyethyl)-4-methyl-2H-indazol-5-carboxamide], in test [1], the IC50 stood at 9.37 nM. Besides, the “Selectivity hEP2/hEP4” value in test [2] is “xxx (xxx > 100)”. In addition, the “Selectivity hEP2/hDP” value in test [3] is “xxx (xxx > 100)”.
Take `COCCNC(=O)c1ccc2nn(CC3CCN(C(=O)c4ccc(OC5CCCC5)cc4)CC3)cc2c1C` [Example 31, 2-({1-[4-(cyclo-pentyloxy)benzoyl]-piperidin-4-yl}-methyl)-N-(2-methoxyethyl)-4-methyl-2H-indazol-5-carboxamide]: the IC50 in test [1] was found to be 3.08 nM. In addition, in test [2], the “Selectivity hEP2/hEP4” value is “xxx (xxx > 100)”. In addition, the “Selectivity hEP2/hDP” value in test [3] is listed as “xxx (xxx > 100)”.
As for `Cc1c(C(=O)NCCO)ccc2nn(CC3CCN(C(=O)c4ccc(Cl)cc4)CC3)cc12` [Example 252, 2-{[1-(4-chlorobenzoyl)piperidin-4-yl]methyl}-N-(2-hydroxyethyl)-4-methyl-2H-indazol-5-carboxamide], in test [1], the IC50 amounted to 295 nM. In addition, the “Selectivity hEP2/hEP4” value in test [2] is reported as “xx (xx: 10-100)”. Further, the “Selectivity hEP2/hDP” value in test [3] is given as “xx (xx: 10-100)”.
